The text below walks through data of patent publication US5605929A, “Methods and compositions for inhibiting 5α-reductase activity” (priority 1995, dated 1997).

By inhibition is commonly meant the share of the control response that was lost under treatment.

Test [1] has as its target type 1 5α-reductase (Homo sapiens, UniProt P18405). The settings on record: cited from earlier work.
Test [2] concerns 5α-reductase. The test can be described thus: 5α-reductase inhibition stated in words. Type of test: biochemical.
Test [3] has as its system human type 1 and 2 5α-reductase isozymes. As to conditions: human; cited from earlier work.
Test [4] has as its target human type 1 and 2 5α-reductase isozymes (Homo sapiens, UniProt P18405). The settings on record: cited from earlier work.
Test [5] relates to scalp baldness. The settings on record: cited from earlier work.
The subject of test [6] is plasma 5α-DHT and prostate. The settings on record: BPH patients; cited from earlier work.
Test [7] has as its target T1, human 5α-reductase isozyme type 2 (Homo sapiens, UniProt P31213).
T1 construct: expressed in transfected cells; host or cells: Rat-1A cells infected with pMV7 retrovirus; microsomes of these cells
T1 sequence (P31213 1-254): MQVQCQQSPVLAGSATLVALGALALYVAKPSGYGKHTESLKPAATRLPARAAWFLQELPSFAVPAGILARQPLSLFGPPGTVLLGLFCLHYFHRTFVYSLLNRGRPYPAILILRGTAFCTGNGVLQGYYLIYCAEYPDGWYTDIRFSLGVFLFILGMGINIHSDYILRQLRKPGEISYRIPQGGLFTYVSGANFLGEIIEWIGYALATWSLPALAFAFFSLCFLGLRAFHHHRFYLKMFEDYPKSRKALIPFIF
The test is described as follows: [3H]4-MA binding, human type 2 isozyme expressed in Rat-1A cells. An excerpt:
(§1) The cDNAs for the human type 1 and 2 5α-reductases were isolated from human prostate λZAP II™ cDNA libraries using the published sequence of the 5α-reductases, PCR™ and standard library screening techniques (Sambrook et al., 1989). The type 1 and 2 cDNAs correspond to nucleotides 31-870 and 28-829, respectively, of the published sequences for these 5α-reductases (Anderson and Russell, 1990; Anderson et al., 1991). The type 1 and 2 cDNAs were subcloned into the retroviral expression vector pMV7 (Kirschmeier et al., 1988) and high titer stocks of virus containing the type 1 and 2 cDNAs were generated using the packaging cells BOSC 23 293 (Kirschmeier et al., 1988). Rat.-1A cells (Pear et al., 1993) were infected with virus (Topp, 1981) and cells containing integrated retrovirus were selected for G418-SO4 resistance, (Brown and Scott, 1987).
(§2) Microsomes were prepared as described previously (Liang and Liao, 1992) from the liver of adult Sprague-Dawley female rats or Rat-1A cells expressing a specific type of human 5α-reductase. […] The data presented was based on the rate of reaction.
(§3) [^3 H]4-MA binding assay were described in detail previously (Liang and Liao, 1992; Liang et al., 1983). […] The reaction was started by the addition of 25 μl of microsomes (25 μg protein). After 30-60 min incubation at 0° C., the [^3 H]4-MA bound to microsomes was collected on a Whatman GF/F glass fiber, washed and radioactivity determined (Liang and Liao, 1992).

The target in test [8] is T2, human 5α-reductase isozyme type 1 (Homo sapiens, UniProt P18405).
T2 construct: expressed in transfected cells; host or cells: Rat-1A cells infected with pMV7 retrovirus; microsomes of these cells
T2 sequence (P18405 1-259): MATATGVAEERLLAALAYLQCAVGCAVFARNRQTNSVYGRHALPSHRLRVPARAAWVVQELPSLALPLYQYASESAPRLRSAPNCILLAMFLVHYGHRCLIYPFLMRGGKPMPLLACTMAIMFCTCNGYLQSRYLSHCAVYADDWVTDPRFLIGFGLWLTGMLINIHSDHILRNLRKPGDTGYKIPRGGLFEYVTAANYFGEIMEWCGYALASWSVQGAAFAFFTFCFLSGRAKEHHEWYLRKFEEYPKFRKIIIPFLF
The test is described as follows: [3H]4-MA binding, human type 1 isozyme expressed in Rat-1A cells. As to conditions: read-out: % Inhibition of [^3 H]4-MA binding.
Excerpt: as §1, §2, §3

[9] abbreviates: read-out: % Inhibition of [^3 H]4-MA binding.

For the compound `CN1C(=O)CC[C@@H]2c3ccc(Cl)cc3CC[C@H]21` [LY191704], the “type 1 5α-reductase selectivity” value in test [1] is recorded as “selective inhibitor of the type 1 5α-reductase”.

For the compound `O=C(OCc1cc(O)c(O)c(O)c1)c1cc(O)c(O)c(O)c1`, the “5α-reductase inhibition” value in test [2] is reported as “potent inhibitor of 5α-reductase”.

On to `CC(C)(C)NC(=O)[C@H]1CC[C@H]2[C@@H]3CC[C@H]4NC(=O)C=C[C@]4(C)[C@H]3CC[C@]12C` [Finasteride, 17β-N-t-butylcarbamoyl-4-aza-5α-androst-1-en-3-one, reference compound], for which the “sensitivity of type 2 vs type 1 isozyme to inhibition (times)” value in test [3] was 30 times. Also, the “sensitivity of type 1 isozyme” value in test [4] was “rather insensitive”. Further, the “serum 5α-DHT and hair” value in test [5] (0.5 mg/day oral, alone or with topical 2% Minoxidil) is “reduced serum 5α-DHT level”. Besides, the “baldness” value in test [5] (topical to scalp) is reported as “effective in preventing male pattern baldness”. In test [6], the “plasma 5α-DHT and prostate size” value was “decreases the plasma level of 5α-DHT and the size of the prostate”. The “inhibition of type 2 isozyme expressed in Rat-1A cells” value in test [7] is “inhibited the type 2 isozyme”. In test [7] (setting [9]), the inhibition at 0.001 µM was less than 10%, the inhibition at 0.003 µM is less than 10%, the inhibition at 0.01 µM amounted to 22% and the inhibition at 0.03 µM worked out at 44%. In test [7] (setting [9]), the inhibition at 0.1 µM stood at 67%. In addition, in test [8], the inhibition at 0.001 µM was less than 10%, the inhibition at 0.003 µM is less than 10%, the inhibition at 0.01 µM was less than 10% and the inhibition at 0.03 µM was less than 10%. Besides, the inhibition at 0.1 µM in test [8] is less than 10%.
